Experimental findings from patent publication US11351179B1, “Pharmaceutical compositions and methods for treatment of psychiatric disorders” (LA PharmaTech Inc., priority 2021, dated 2022) are described below.

Experiment [1] has as its system MDD and panic disorder. In words: Clinical case: patient with MDD and panic disorder treated orally once daily. Format: in vivo, human. The following applies: each drug given for 2 months before the composition. An excerpt:
A patient had MDD and panic disorder. […] Because azelastine is approved for the treatment of allergic rhinitis and asthma, and the combination composition of azelastine and folic acid had never been expected to be used to treat patients with depression or anxiety, this dramatic clinical outcome which included a fast reduction of symptoms was unexpected. […] This composition with two mechanisms of action of anti-inflammation would provide a new solution for treating psychiatric diseases which are incurable by other options, such traditional SSRIs, NSRIs, benzodiazepines, and the like alone.

For experiment [2], the system named is mild chronic depression and anxiety induced sleep disorder. Nature of the experiment: Clinical case: patient with mild chronic depression and anxiety induced sleep disorder treated once daily. In kind it is in vivo, human. The following applies: citalopram and lorazepam together for 3 months before the composition. How it is done:
A patient was diagnosed with mild chronic depression and anxiety induced sleep disorder and was treated with citalopram and lorazepam for 3 months. […] Then they were treated with a composition of folic acid (0.19 mg) and azelastine (2 mg) once daily. […] The inventors believe the hypothesis as explained in Example 1 above is applicable here as well. In this case, the composition of two mechanisms of action provided a new solution for treating their chronic depression and insomnia which could not be treated with other options, such traditional SSRIs, NSRIs, benzodiazepines, and the like alone.

Consider `O=C1CC2(CCCC2)CC(=O)N1CCCCN1CCN(c2ncccn2)CC1` [buspirone], for which the “clinical improvement on prior treatment” value in experiment [1] is on record as “no significant clinical improvement”. Regarding `O=C1Nc2ccc(Cl)cc2C(c2ccccc2Cl)=NC1O` (stereo not drawn) [lorazepam], in experiment [2], the “improvement of symptoms on prior treatment” value is listed as “never improved to the level of their satisfaction”.

Take `CN[C@H]1CC[C@@H](c2ccc(Cl)c(Cl)c2)c2ccccc21` [sertraline]: in experiment [1], the “clinical improvement on prior treatment” value is listed as “no significant clinical improvement”.
